{"source": "patent US7566720B2", "about": "“2-pyridinyl-6,7,8,9-tetrahydropyrimido[1,2-a] pyrimidin-4-one and 7-pyridinyl-2,3-dihydroimidazo[1,2-a] pyrimidin-5(1H)one derivatives” (Sanofi-Aventis, priority 2000, dated 2009)", "note": "Counter-ions that a name gives are not always drawn.", "data": [{"units": {"melting point": "°C"}, "values": [{"molecule": "O=C(CCc1ccccc1)N1CCCn2c1nc(-c1ccncc1)cc2=O", "note": "(as salt: salt) [Compound No 25 of Table 1, 9-[3-phenylpropanoyl]-2-pyridin-4-yl-6,7,8,9-tetrahydro-4H-pyrimido[1,2-a]pyrimidin-4-one]", "melting point": "158 to 160"}, {"molecule": "CC(C(=O)c1ccccc1)N1CCCn2c1nc(-c1ccncc1)cc2=O", "note": "(racemic) (as salt: hydrochloride) [Compound No 73 of Table 1, 9-[1-methyl-2-oxo-2-phenyl-ethyl]-2-pyridin-4-yl-6,7,8,9-tetrahydro-4H-pyrimido[1,2-a]pyrimidin-4-one]", "melting point": "194 to 196"}, {"molecule": "CC(C(O)c1ccccc1)N1CCCn2c1nc(-c1ccncc1)cc2=O", "note": "(racemic) [Compound No 74 of Table 1, 9-[1-methyl-2-hydroxy-2-phenyl-ethyl]-2-pyridin-4-yl-6,7,8,9-tetrahydro-4H-pyrimido[1,2-a]pyrimidin-4-one]", "melting point": "232 to 234"}, {"molecule": "O=C(CCc1ccccc1)N1CCCn2c1nc(-c1ccncc1)cc2=O", "note": "[Compound No 25 of Table 1, 9-[3-phenylpropanoyl]-2-pyridin-4-yl-6,7,8,9-tetrahydro-4H-pyrimido[1,2-a]pyrimidin-4-one]", "melting point": "230 to 232"}]}]}
